# “And” between values parts separate entries of the source, which are not always exact repeats. Identical values can stand only once.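 Cells were grown in 96-well plates and exposed to each compound for 48 hours at five concentrations; endpoints were interpolated linearly between bracketing concentrations, or set to the highest concentration if not reached. GI50 marks 50% less growth. TGI: concentration producing complete growth inhibition.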
# What was measured:
# Assay in all cases: inhibition of tumour cell growth, NCI panel, 48 h
# UACC-257 melanoma = system: UACC-257 melanoma
# HCT-116 colon = system: HCT-116 colon
# MOLT-4 leukemia = system: MOLT-4 leukemia
# NCI-H226 lung = system: NCI-H226 lung
# UACC-62 melanoma = system: UACC-62 melanoma
# TK-10 renal = system: TK-10 renal
# SN12C renal = system: SN12C renal
# OVCAR-3 ovarian = system: OVCAR-3 ovarian
# HS 578T breast = system: HS 578T breast
# MDA-MB-231 breast = system: MDA-MB-231 breast
compound,measurement,setting,value
O=C(c1ccccc1)c1ccc2c(c1)N=C(c1ccc(Cl)c(Cl)c1)CC(c1ccc3ccccc3c1)N2 (stereo not drawn),TGI,UACC-257 melanoma,> 100 µM
same,TGI,HCT-116 colon,> 100 µM
same,TGI,MOLT-4 leukemia,> 100 µM
same,TGI,NCI-H226 lung,> 100 µM
same,TGI,UACC-62 melanoma,> 100 µM
same,TGI,TK-10 renal,> 100 µM
same,TGI,SN12C renal,> 100 µM
O.O=[Se](=O)(O)O.[NH-]C1CCCCC1[NH-].[Pt+2] (stereo not drawn),GI50,OVCAR-3 ovarian,21.2 µM
same,TGI,OVCAR-3 ovarian,> 81.9 µM
same,GI50,UACC-257 melanoma,46.4 µM
same,TGI,UACC-257 melanoma,> 100 µM
same,GI50,HCT-116 colon,4.36 µM
same,TGI,HCT-116 colon,> 100 µM
same,GI50,MOLT-4 leukemia,2.79 µM
same,TGI,MOLT-4 leukemia,> 100 µM
same,GI50,NCI-H226 lung,5.21 µM
same,TGI,NCI-H226 lung,25.7 µM
same,GI50,UACC-62 melanoma,4.25 µM
same,TGI,UACC-62 melanoma,26.4 µM
same,GI50,SN12C renal,23.3 µM
same,TGI,SN12C renal,> 100 µM
COc1cc(/C=C2\N=C(c3ccccc3)N(c3ccc(C(=O)c4ccccc4)cc3N3C(=O)/C(=C/c4cc(OC)c(OC)c(OC)c4)N=C3c3ccccc3)C2=O)cc(OC)c1OC,TGI,OVCAR-3 ovarian,16.6 µM
same,TGI,UACC-257 melanoma,33.4 µM
same,TGI,HCT-116 colon,52.2 µM
same,TGI,HS 578T breast,74.8 µM
same,TGI,MOLT-4 leukemia,39.6 µM
same,TGI,MDA-MB-231 breast,54 µM
same,TGI,UACC-62 melanoma,24.7 µM
same,TGI,TK-10 renal,42.3 µM
same,TGI,SN12C renal,89.1 µM
O=C(O)C1(Cc2ccc3c(c2)CCC3)Cc2cc3c(cc2C1)CCC3,TGI,OVCAR-3 ovarian,> 100 µM
same,TGI,HCT-116 colon,> 100 µM
same,TGI,HS 578T breast,> 100 µM
same,TGI,MOLT-4 leukemia,> 100 µM
same,TGI,NCI-H226 lung,> 100 µM
same,TGI,UACC-62 melanoma,> 100 µM
same,TGI,TK-10 renal,> 100 µM
COC(=O)C[C@H]1[C@]2(C)C3=C(C)[C@H](c4ccoc4)CC3O[C@@H]2[C@@H]2OC(=O)[C@]3(C)CCC(=O)[C@@]1(C)[C@@H]23 (stereo partly drawn),TGI,OVCAR-3 ovarian,> 100 µM
same,TGI,UACC-257 melanoma,> 100 µM
same,TGI,HCT-116 colon,> 100 µM
same,TGI,HS 578T breast,> 100 µM
same,TGI,MOLT-4 leukemia,46.8 µM
same,TGI,MDA-MB-231 breast,> 100 µM
same,TGI,UACC-62 melanoma,> 100 µM
same,TGI,SN12C renal,> 100 µM
NC(=S)N1N=C(c2ccc3c(c2)CCC3)CC1c1ccccc1 (stereo not drawn),TGI,OVCAR-3 ovarian,55.8 µM
same,TGI,UACC-257 melanoma,86.9 µM
same,TGI,HCT-116 colon,87.6 µM
same,TGI,HS 578T breast,> 100 µM
same,TGI,MOLT-4 leukemia,> 100 µM
same,TGI,NCI-H226 lung,> 100 µM
same,TGI,UACC-62 melanoma,74.1 µM
same,TGI,TK-10 renal,87.1 µM
same,TGI,SN12C renal,> 100 µM
CC(=O)N/N=C1\NN(C(C)=O)C2(S1)C(=O)Nc1ccccc12 (stereo not drawn),TGI,OVCAR-3 ovarian,> 100 µM
same,TGI,HCT-116 colon,> 100 µM
same,TGI,MOLT-4 leukemia,> 100 µM
same,TGI,NCI-H226 lung,> 100 µM
same,TGI,MDA-MB-231 breast,> 100 µM
same,TGI,UACC-62 melanoma,> 100 µM
same,TGI,TK-10 renal,> 100 µM
same,TGI,SN12C renal,> 100 µM
Cc1ccc(N=Nc2cc(=O)[nH]c(=O)[nH]2)cc1C,TGI,OVCAR-3 ovarian,4.19 µM
same,TGI,UACC-257 melanoma,28.7 µM
same,TGI,HCT-116 colon,22.5 µM
same,TGI,MOLT-4 leukemia,> 100 µM
same,TGI,NCI-H226 lung,41.8 µM
same,TGI,MDA-MB-231 breast,24.2 µM
same,TGI,TK-10 renal,34.3 µM
same,TGI,SN12C renal,18.6 µM
CN(CCc1ccccn1)C(=S)N/N=C/c1ccccn1,TGI,OVCAR-3 ovarian,25.9 µM
same,TGI,UACC-257 melanoma,0.895 µM
same,TGI,HS 578T breast,> 87.2 µM
same,TGI,MOLT-4 leukemia,< 0.025 µM
same,TGI,NCI-H226 lung,0.255 µM
same,TGI,MDA-MB-231 breast,0.982 µM
same,TGI,UACC-62 melanoma,15.7 µM
same,TGI,TK-10 renal,0.668 µM
same,TGI,SN12C renal,> 36.2 µM
C#Cc1ccccc1C(=O)OC,TGI,OVCAR-3 ovarian,> 100 µM
same,TGI,UACC-257 melanoma,> 100 µM
same,TGI,HCT-116 colon,> 100 µM
same,TGI,MOLT-4 leukemia,> 100 µM
same,TGI,NCI-H226 lung,> 100 µM
same,TGI,UACC-62 melanoma,> 100 µM
same,TGI,TK-10 renal,> 100 µM
same,TGI,SN12C renal,> 100 µM
Cc1cc(=O)[nH]c(S(=O)(=O)NC(=S)Nc2ccc(Br)cc2)n1,TGI,OVCAR-3 ovarian,> 100 µM
same,TGI,UACC-257 melanoma,> 100 µM
same,TGI,HS 578T breast,> 100 µM
same,TGI,MOLT-4 leukemia,> 100 µM
same,TGI,NCI-H226 lung,> 100 µM
same,TGI,MDA-MB-231 breast,> 100 µM
same,TGI,UACC-62 melanoma,> 100 µM
same,TGI,TK-10 renal,> 100 µM
same,TGI,SN12C renal,> 100 µM
CN(C)CCCN1C(=O)N(CCCN(C)C)c2c3cc(O)ccc3nc3c([N+](=O)[O-])ccc1c23,TGI,OVCAR-3 ovarian,67.6 µM
same,TGI,UACC-257 melanoma,> 100 µM
same,TGI,HCT-116 colon,38.2 µM
same,TGI,HS 578T breast,60 µM
same,TGI,NCI-H226 lung,61.7 µM
same,TGI,MDA-MB-231 breast,28.3 µM
same,TGI,UACC-62 melanoma,27.3 µM
same,TGI,TK-10 renal,> 100 µM
same,TGI,SN12C renal,49.1 µM
CCOC(=O)Cn1c(C)nc2nn(Cc3ccccc3)cc2c1=O,TGI,OVCAR-3 ovarian,> 100 µM
same,TGI,HCT-116 colon,> 100 µM
same,TGI,HS 578T breast,> 100 µM
same,TGI,MOLT-4 leukemia,> 100 µM
same,TGI,NCI-H226 lung,> 100 µM
same,TGI,MDA-MB-231 breast,> 100 µM
same,TGI,UACC-62 melanoma,> 100 µM
same,TGI,TK-10 renal,> 100 µM
same,TGI,SN12C renal,> 100 µM
CC1=NN(C(=O)Cc2ccccc2)C(=O)/C1=C\c1cccc(O)c1,TGI,OVCAR-3 ovarian,> 100 µM
same,TGI,UACC-257 melanoma,> 100 µM
same,TGI,HCT-116 colon,> 100 µM
same,TGI,MOLT-4 leukemia,> 100 µM
same,TGI,NCI-H226 lung,> 100 µM
same,TGI,TK-10 renal,> 100 µM
same,TGI,SN12C renal,> 100 µM
O=c1c2cc(Cl)ccc2n2nnc3ccc(NCCNCCO)c1c32,TGI,OVCAR-3 ovarian,4.16 µM
same,TGI,UACC-257 melanoma,3.6 µM
same,TGI,HCT-116 colon,2.33 µM
same,TGI,MOLT-4 leukemia,6.59 µM
same,TGI,NCI-H226 lung,4.13 µM
same,TGI,MDA-MB-231 breast,2.81 µM
same,TGI,UACC-62 melanoma,5.41 µM
same,TGI,TK-10 renal,6.24 µM
same,TGI,SN12C renal,2.88 µM
C=CC(=O)N1C/C(=C\c2ccc(F)cc2)C(=O)/C(=C/c2ccc(F)cc2)C1,TGI,OVCAR-3 ovarian,1.19 µM
same,TGI,UACC-257 melanoma,6.05 µM
same,TGI,HCT-116 colon,0.105 µM
same,TGI,HS 578T breast,0.876 µM
same,TGI,NCI-H226 lung,8.78 µM
same,TGI,UACC-62 melanoma,0.223 µM
same,TGI,TK-10 renal,2.84 µM
same,TGI,SN12C renal,0.936 µM
CCCCC[C@@H]1OC(=O)[C@@]2(CC3c4ccccc4C2c2ccccc23)[C@H]1C(=O)OC,TGI,OVCAR-3 ovarian,> 100 µM
same,TGI,UACC-257 melanoma,86.4 µM
same,TGI,HCT-116 colon,> 100 µM
same,TGI,HS 578T breast,> 100 µM
same,TGI,MDA-MB-231 breast,> 100 µM
same,TGI,UACC-62 melanoma,> 100 µM
same,TGI,TK-10 renal,> 100 µM
same,TGI,SN12C renal,> 100 µM
Nc1ncnc2c(C3OC(CO)C(O)C3O)c[nH]c12 (stereo not drawn),GI50,OVCAR-3 ovarian,0.0116 µM
same,TGI,OVCAR-3 ovarian,0.0342 µM and 0.124 µM
same,GI50,UACC-257 melanoma,< 0.0155 µM
same,TGI,UACC-257 melanoma,0.276 µM and 0.382 µM
same,TGI,HCT-116 colon,0.16 µM
same,GI50,HS 578T breast,0.0247 µM
same,GI50,NCI-H226 lung,0.0189 µM
same,TGI,NCI-H226 lung,0.271 µM and 0.159 µM
same,TGI,MDA-MB-231 breast,> 100 µM
same,GI50,UACC-62 melanoma,0.0101 µM
same,TGI,UACC-62 melanoma,0.0496 µM and 0.0377 µM
same,GI50,TK-10 renal,0.0163 µM
same,TGI,TK-10 renal,0.471 µM
same,TGI,SN12C renal,0.0946 µM and 0.537 µM
Brc1ccc2[nH]cc(-c3nc(-c4c[nH]c5ccncc45)cs3)c2c1,GI50,UACC-257 melanoma,1.92 µM
same,TGI,UACC-257 melanoma,3.46 µM
same,GI50,MDA-MB-231 breast,1.52 µM
same,TGI,MDA-MB-231 breast,2.95 µM
same,GI50,TK-10 renal,2.33 µM
same,TGI,TK-10 renal,3.9 µM
same,GI50,SN12C renal,1.79 µM
same,TGI,SN12C renal,3.32 µM
O=[N+]([O-])c1ccc(-c2nc3ccccc3o2)cc1,TGI,OVCAR-3 ovarian,> 100 µM
same,TGI,UACC-257 melanoma,> 100 µM
same,TGI,HCT-116 colon,> 100 µM
same,TGI,HS 578T breast,> 100 µM
same,TGI,MOLT-4 leukemia,> 100 µM
same,TGI,NCI-H226 lung,> 100 µM
same,TGI,UACC-62 melanoma,> 100 µM
same,TGI,TK-10 renal,> 100 µM
same,TGI,SN12C renal,> 100 µM
CC[N+]1(C)CCC(O)(/C=C/c2ccc(Cl)c(Cl)c2)C(C(=O)/C=C/c2ccc(Cl)c(Cl)c2)C1 (stereo not drawn),TGI,OVCAR-3 ovarian,10.6 µM
same,TGI,UACC-257 melanoma,5.96 µM
same,TGI,HCT-116 colon,3 µM
same,TGI,HS 578T breast,7.66 µM
same,TGI,MOLT-4 leukemia,5.17 µM
same,TGI,NCI-H226 lung,14.6 µM
same,TGI,UACC-62 melanoma,3.64 µM
same,TGI,TK-10 renal,6.58 µM
same,TGI,SN12C renal,3.61 µM
O=c1oc2ccccc2cc1-c1nc2ccccc2s1,TGI,OVCAR-3 ovarian,20.7 µM
same,TGI,HS 578T breast,20.4 µM
same,TGI,NCI-H226 lung,33 µM
same,TGI,MDA-MB-231 breast,27.6 µM
same,TGI,TK-10 renal,33.5 µM
same,TGI,SN12C renal,> 50.7 µM
Cc1ccc(NC(=O)NC23CC4CC(CC(F)(C4)C2)C3)cc1,TGI,OVCAR-3 ovarian,> 100 µM
same,TGI,UACC-257 melanoma,> 100 µM
same,TGI,HCT-116 colon,> 100 µM
same,TGI,MOLT-4 leukemia,> 100 µM
same,TGI,UACC-62 melanoma,> 100 µM
same,TGI,TK-10 renal,> 100 µM

# Reference: PubChem BioAssay (NCI)
